Consider 3 molecules from patent publication US20060110781A1, “Cholesterol detection reagent” (RIKEN, priority 2002, published 2006).

The assay deals with NPC fibroblasts. The assay is described as follows: Fate of cell surface fPEG-Chol, incorporation into meshwork structure. Particulars: for incorporation of fPEG-Chol into meshwork: inhibitor 5 μg/ml before 1 μM fPEG-Chol.

With `C[C@H]1CCC/C=C/[C@@H]2C[C@H](O)C[C@H]2[C@H](O)/C=C/C(=O)O1` [Brefeldin A], the “incorporation of fPEG-Chol into meshwork” value was “did not significantly affect”.

Turning to `C=C1[C@@H](C)[C@H]2[C@H](Cc3ccccc3)NC(=O)[C@]23OC(=O)/C=C/[C@H](O)CCC[C@@H](C)C/C=C/[C@H]3[C@@H]1O` [cytochalasin B], the “incorporation of fPEG-Chol into meshwork” value is on record as “meshwork structure was disappeared”. In addition, under “5 μg/ml, 30 minutes, 1 mg/ml rhodamine dextran”, the “internalization of rhodamine dextran” value was “did not affect”.

On to `COC(=O)Nc1nc2ccc(C(=O)c3cccs3)cc2[nH]1` [nocodazole], for which the “incorporation of fPEG-Chol into meshwork” value is reported as “did not significantly affect”.
